# Experimental data as given in PubChem BioAssay AID623928 (NMMLSC, 2012).
# Active and inactive are the calls of the source.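 How the source made its calls: active means liver cell toxicity, with the dose killing half the cells under 10 micromolar; inactive means the rest.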
# Test system: Fa2N-4 hepatocyte viability, ATP luminescence, 24 h
# Test: Fa2N-4 hepatocyte viability loss – Fa2N-4 cells, cytotoxicity control for GPR30 and estrogen receptor ligands, late-stage follow-up (AID 623928)
compound,measurement,value
CC(=O)c1ccc2c(c1)[C@@H]1C=CC[C@@H]1[C@H](c1cc3c(cc1Br)OCO3)N2,LC50,> 50 µM (inactive)
